Data set [1] has as its system indomethacin-induced gastric damage. Kind of data set: Inhibition of indomethacin-induced gastric damage in the rat (anti-ulcer activity, method of Elegbe). The class given is in vivo. The note with it: po, 5 h, indomethacin 15 mg/kg s.c., compound 100 mg/kg orally, 30 min prior to and 2 h post indomethacin, read-out: Table 1 % Inhibition (mean inhibition of gastric damage). The method, then:
This was assessed by the inhibition of indomethacin-induced gastric damage in the rat according to the method of Elegbe (Israeli J. Med. Sci. (1974), 10, 1451).
Rats were starved overnight, given indomethacin subcutaneously (15 mg/kg) and sacrificed 5 hours later. Stomachs were inflated with 0.9% saline, cut along the greater curvature, pinned out and scored for gastric damage by the following system:
Score 1-3 according to the degree of erythema and slight haemorrhage.
Score 4-6 according to degree of mucosal erosion.
Score 7-9 according to depth of gastric damage.
Groups of 7 rats were used for each treatment level of compound, and a similar group receiving vehicle only was set up on each occasion of testing. Compound or vehicle was administered orally 30 minutes prior to, and at 2 hours post, dosing with indomethacin. Mean values per treatment were obtained using the above scoring system and the Mann Witney test applied for significance between such values. The mean inhibition of gastric damage from a number of experiments is shown in the following Table 1; the dosage being 100 mg/kg orally.

Data set [2] in a line: Acute toxicity in rats. The note with it: rat, in vivo. Here is the method:
(§1) 5 (Z-isomer) up to 536 or 824 mg/kg in mice and rats respectively. The acute oral median lethal dose of compound no. 5 is 1268 mg/kg in male mice and 2311 mg/kg in male rats.

The nature of data set [3]: Acute toxicity in mice. The note with it: mouse, in vivo. The method, then:
as §1

The test system of data set [4] is gastric secretion. Kind of data set: Effects on gastric secretion in the pyloric ligated rat (method of Shay et al.). The class given is in vivo. Particulars: intraduodenal, 100 mg/kg i.d., sacrificed 3 hours later. The method, then:
2. Effects on Gastric Secretion, in the Pyloric Ligated Rat
The method described by Shay, et al. (Gastroenterol (1945) 26, 906) was used. After overnight starvation the pylorus of a rat was ligated under halothane anaesthesia, the Compound vehicle only administered intraduodenally and the rats allowed to recover. They were sacrificed 3 hours later and the gastric juice removed. After measurement of the volume of secretion, its hydrogen ion concentration, [H^+ ], was determined by titration with 0.05 N NaOH to pH 7. Groups of 4-6 animals were used for each treatment and the inhibitory effect of the Compound was ascertained by comparison of the mean values obtained with those from a simultaneously set up control group of animals which received vehicle only. Students `t` test was applied for significance between groups. The mean values for % inhibition obtained for a number of experiments are shown in the following Table 2, the dosage being 100 mg/kg i.d.

Data set [5] relates to gastric secretion. The data set is described as above. The format is in vivo. Particulars: intraduodenal, 50 mg/kg i.d., sacrificed 3 hours later.
Where [6] appears, read: read-out: Table 2 % Inhibition Volume (volume of gastric secretion).
[7] abbreviates: read-out: Table 2 % Inhibition [H^+ ] (hydrogen ion concentration).

Read-outs that look alike come from different tables or passages of the source. A value given as a limit tells only on which side of the number the result lay.

On to `CO/N=C(/C#N)c1cnccn1` [5 (E-isomer), α-Methoxyiminopyrazineacetonitrile], for which the inhibition in vivo at 100 mg/kg in data set [1] was 96%.

For the molecule `CO/N=C(\C#N)c1cnccn1` [5 (Z-isomer), α-Methoxyiminopyrazineacetonitrile], the NOAEL is not below 824 mg/kg in data set [2] (rats, single doses, read-out: Single dose up to which no adverse effects were seen) and not below 536 mg/kg in data set [3] (mice, single doses, read-out: Single dose up to which no adverse effects were seen). In addition, the inhibition in vivo at 100 mg/kg in data set [1] is 94%; in data set [4] (setting [6]) it was 70%; in data set [4] (setting [7]) it was 73%.

`CON=C(C#N)c1ccccn1` [6 a]: the inhibition in vivo at 100 mg/kg in data set [1] and in data set [4] (setting [6]) was 62% each time.

With `CON=C(C#N)c1cccc(Cl)n1` [6 aa], the inhibition in vivo at 100 mg/kg in data set [4] (setting [6]) was 35%; in data set [4] (setting [7]), 23%.

Regarding `CCO/N=C(\C#N)c1cnccn1` [6 b], the inhibition in vivo at 100 mg/kg worked out at 68% in data set [1], 66% in data set [4] (setting [6]) and 60% in data set [4] (setting [7]).

As to `CON=C(C#N)c1cccnc1` [6 bb], in data set [1], the inhibition in vivo at 100 mg/kg was found to be 72%.

`CC(C)O/N=C(\C#N)c1cnccn1` [6 c]: the inhibition in vivo at 100 mg/kg was 43% in data set [1] and 52% in data set [4] (setting [6]).

Regarding `CON=C(C#N)c1ccncc1` [6 cc], the figures for the inhibition in vivo at 100 mg/kg in data set [1], in data set [4] (setting [6]) and in data set [4] (setting [7]) were 95%, 80% and 39%, respectively.

Take `CCCCO/N=C(\C#N)c1cnccn1` [6 d]: the inhibition in vivo at 100 mg/kg in data set [1] stood at 50%.

`CON=C(C#N)c1cncnc1` [6 dd]: the inhibition in vivo at 100 mg/kg was 77% in data set [1], 35% in data set [4] (setting [6]) and 39% in data set [4] (setting [7]).

Consider `N#C/C(=N\OC1CCCCC1)c1cnccn1` [6 e], for which the inhibition in vivo at 100 mg/kg in data set [4] (setting [6]) turned out to be 62%; in data set [4] (setting [7]) it was 48%.

As to `CO/N=C(\C#N)c1ccc2ccccc2n1` [6 ee], the figures for the inhibition in vivo at 100 mg/kg in data set [1] and in data set [4] (setting [6]) were 84% and 28%, respectively.

Turning to `CO/N=C(\C#N)c1ccc2cc(C)ccc2n1` [6 ff], in data set [1], the inhibition in vivo at 100 mg/kg came out at 42%.

With `CO/N=C(\C#N)c1ccc2ccc(C)cc2n1` [6 gg], the inhibition in vivo at 100 mg/kg in data set [1] was 42%.

Consider `CO/N=C(\C#N)c1ccnc2ccccc12` [6 ll], for which the inhibition in vivo at 100 mg/kg in data set [1] was 85%; in data set [4] (setting [6]), 85%; in data set [4] (setting [7]) it was 23%.

Regarding `CO/N=C(\C#N)c1nccc2ccccc12` [6 mm], the inhibition in vivo at 100 mg/kg is 42% in data set [1] and 28% in data set [4] (setting [6]).

In the case of `CO/N=C(\C#N)c1cnc2ccccc2n1` [6 nn], the inhibition in vivo at 100 mg/kg in data set [1] was 79%; in data set [4] (setting [6]) it was 28%.

In the case of `CO/N=C(/C#N)c1cnc2ccccn12` [6 qq], the inhibition in vivo at 100 mg/kg in data set [1] was found to be 100%; in data set [4] (setting [6]), 77%; in data set [4] (setting [7]), 29%.

`CO/N=C(\C(N)=S)c1ccccn1` [8 (and 10), α-Methoxyimino-2-pyridinethioacetamide]: the inhibition in vivo at 100 mg/kg in data set [1] worked out at 74%. Moreover, the inhibition in vivo at 50 mg/kg in data set [5] (setting [6]) turned out to be 32%; in data set [5] (setting [7]), 24%.

On to `CO/N=C(\C(N)=O)c1ccccn1` [9 b], for which the inhibition in vivo at 100 mg/kg in data set [1] came out at 56%; in data set [4] (setting [6]), 26%.

Turning to `CO/N=C(/C(N)=O)c1ccccn1` [9 c], the inhibition in vivo at 100 mg/kg was determined as 65% in data set [1] and 40% in data set [4] (setting [6]).

With `CON=Cc1cnccn1` [12 (and 13), Pyrazine carboxaldehyde, O-methyl oxime], the inhibition in vivo at 100 mg/kg came to 66% in data set [1] and 42% in data set [4] (setting [6]).

`CO/N=C(\C#N)c1c[n+]([O-])ccn1` [14 a]: the figures for the inhibition in vivo at 100 mg/kg in data set [1], in data set [4] (setting [6]) and in data set [4] (setting [7]) were 91%, 50% and 34%, respectively.

As for `CON=C(C#N)c1cnccn1` [Compound 5, α-Methoxyiminopyrazineacetonitrile], the LD50 turned out to be 2310 mg/kg in data set [2] (male rats, oral, read-out: Acute oral median lethal dose) and 1270 mg/kg in data set [3] (male mice, oral, read-out: Acute oral median lethal dose).

For `CON=C(c1ccccn1)C(F)(F)F` [Compound 7, 2-Pyridinyl trifluoromethyl ketone, O-methyl oxime], the inhibition in vivo at 100 mg/kg in data set [4] (setting [6]) stood at 74%; in data set [4] (setting [7]) it was 33%.

For the molecule `CO/N=C(\C#N)c1c[n+](C)ccn1` [Compound 15, α-Methoxyimino-2-pyrazineacetonitrile-4-methiodide], the inhibition in vivo at 100 mg/kg in data set [1] came out at 55%.

Values taken from patent publication US4327213A, “Alpha-hydrocarbonoxyimino-pyrazineacetonitriles” (ACF Chemiefarma VA, priority 1977, dated 1982).
